Data on three compounds can be found in patent publication US20090074885A1, “Reversible Hydrophobic Modification of Drugs for Improved Delivery to Cells” (Roche Madison Inc., priority 2003, published 2009).

Data set [1] can be described thus: Analysis of prodrug lability (rate of hydrolysis) of PI derivatives by fluorescent spectroscopy. It is filed as physicochemical. Conditions: for Half-life: extrapolated to pure buffer (100 mol % H2O). As for the experimental part: Analysis of prodrug lability. The prodrugs were tested for their rate of hydrolysis at pH 6.0, 7.2 and 8.5 using fluorescent spectroscopy. Lability studies for C12CON-PI and RRH-PI (rapidly reversible hydrophobic-PI) derivatives were conducted on a Cary Eclipse Fluorescence Spectrophotometer (Varian Inc.).
To solutions of PI and RRH-prodrugs of PI (7.48 μM in DMSO) were added various amounts of buffer (25 μL, 50 μL, and 100 μL of 20 mM Hepes buffer) at different pH. Upon cleavage of the hydrophobic modification and regeneration of PI, the fluorescence of the solution increased (λex=493 nm, λem=647 nm, excitation and emission slit width=5 nm, and emission PMT=600V) and was assayed as a function of time (20 min).
The resulting curves were normalized for intensity and fit to an exponential equation (Origin) to determine kdetermined for each solution. The kdetermined for each compound at appropriate pH were plotted against the mol % of H2O, and the best fit line was solved for kbuffer for 100 mol % H2O. These derived kbuffer values were used to determine the half-life of the prodrug in pure buffer according to the equation t1/2=1n2/k.

Data set [2] deals with Jurkat cells. The experiment in a line: Flow cytometry of prodrug delivery to Jurkat cells. It is filed as cell-based, human. As for the experimental part: For experiments conducted on Jurkat cells (8.0×10^5 cells/ml in media), the cells were isolated by centrifugation and resuspended in ITG at a density of 4.0×10^6 cells/ml. Exposure to the drug/prodrug was conducted by passing the cells in suspension in ITG (200 μl) through the mixing chamber. After 30 sec the cells were centrifuged and the drug solution was removed (aspirated), the cells were resuspended in complete media (2 ml) and plated in 6-well plates for imaging. Passing the cells through the mixing chamber (no drug/prodrug treatment) had no effect on cell viability when compared to cells plated without passing through the mixing chamber.
Flow cytometry was conducted on a FacsCalibur Flow Cytometer (Becton Dickinson Biosciences). Jurkat cells were isolated and treated with PI and II as previously described. After 4 min the cells were centrifuged and the drug solution was removed (aspirated) and 1 ml complete media was added to the cells. During analysis, PI was added to control cells (1 ml of 8.0×10^5 cells/ml in complete media, 1 drop of 1 mg/ml PI solution, no OS or mixing chamber) to determine normal cell senescence. Data were collected for a total of 10,000 events using Cell Quest™ (Becton Dickinson Biosciences), and analyzed with FlowJo (Tree Star Inc.) for single cell events (approximately 80% of events), and secondly for PI. For Jurkat cells treated with II, forward scatter was analogous to control cells, while side scatter increased approximately two fold. Reported data represents a histogram of PI intensity for single cell events from four independent preparations. Cells were considered PI positive at a value of 100 on the PI intensity axis of the histogram for the cell percentages described.
On the technique in general: A flow cytometer gives signals particle by particle.

A short description of data set [3]: Qualitative 90° light scattering for particles. It is filed as physicochemical. Conditions: relative to ITG or PI in ITG. As for the experimental part: Light Scattering analysis of prodrugs. Particle size was determined by dynamic light scattering on a Zeta Plus (Zeta Potential Analyzer, Brookhaven Instrument Corporation, λ 533 nm, 90°), and results are reported as the size of the most abundant particle (range of particle sizes, counts sec^−1). Fluorescent compounds were also analyzed for particles qualitatively, by measuring for light scattering on a Cary Eclipse Fluorescence Spectrophotometer (Varian Inc.), with λex=λem (300-800 nm, 90° detection). The presence of particles in solution results in an increase in signal detection at 90°. PI and RRH-PI prodrugs were 7.48 mM in DMSO. Melphalan and V were 50 mM in DMSO. The drug/prodrug solutions were mixed and diluted with ITG through the mixing chamber (40 μl OS and 400 μl ITG), and analyzed immediately.

Data set [4] deals with SK-OV-3 peritoneal tumors. The experiment in a line: Direct application / IP injection in mouse model of disseminated peritoneal ovarian cancer. It is filed as in vivo, nude mice. Particulars: two weeks after SK-OV-3 inoculation, direct application or IP injection. As for the experimental part: BDMODS-PI and C12PMMA-PI show enhanced drug uptake by surface tissue and microtumors following IP and intraperitoneal perfusion chemotherapy (IPPC) application in a mouse tumor model. For establishment of the cancer model, 2×10^6 SK-OV-3 cells were injected IP into nude mice. The mice were examined at two weeks following cell inoculation, or at the first manifestation of ascites (about 4-5 wks). Tissue samples were fixed in 10% NBF, routinely processed, stained with H&E stain, and subjected to histopathological analysis. […] At 4-5 weeks after SK-OV-3 cell inoculation, maximum tumor size increased to 5-7 mm with the bulk of cancer development present as about 0.1 to about 1 mm microtumors (FIG. 9). At 5 wks most peritoneal surfaces were affected by growing cancer cells, coating both the visceral and parietal peritoneum, e.g. liver, pancreas, and diaphragm. […]
Two weeks following cell inoculation, the abdominal cavity was opened and the drug mixture was directly applied on the duodenum and ovary/uterus/fallopian tubes (220 μL of drug-OS/ITG over 30 sec). […] Cellular uptake of the prodrug was stronger at the surface of the metastases, but also readily detectable in the middle of the small tumors (tumor size about 0.5 to about 1 mm; FIG. 7-8). […]

For data set [5], the system named is rapidly dividing hepatocytes. The experiment in a line: Mitosis of hepatocytes after 70% partial hepatectomy and portal vein delivery. Conditions: 2 days after treatment, 0.150 μmol intraportal. Format: in vivo, ICR mice. As for the experimental part:
Delivery of RRH-PI to rapidly dividing cells results in a decrease in the number of cells in mitosis. […] Following the hepatectomy, PI or III (0.150 μmol, 220 μl total injection volume) were delivered to the liver via the portal vein using the mixing chamber. The abdominal cavity was closed in two layers with 4-0 Braunamid suture. After 48 h, the animals were sacrificed, the livers were harvested, formalin fixed, paraffin imbedded, sectioned, and H&E stained. […] Results are reported as the percentage of cells in metaphase (±standard deviation).

The mark [6] stands for this setting: cells suspended in ITG passed through mixing chamber with drug in DMSO.

Molecules are shown by their SMILES.

Turning to `CCCCCCCCCCCCCCCCCC[Si](C)(C)Nc1ccc2c(c1)c(-c1ccccc1)[n+](CCC[N+](C)(CC)CC)c1cc(N[Si](C)(C)CCCCCCCCCCCCCCCCCC)ccc21.[I-].[I-]` [II, 3,8-bis[((dimethyl)octadecylsilazyl)amine] 5-(3,3-diethyl-3-methylammoniumpropyl) 6-phenyl phenanthridinium diiodide], the k result in data set [1] (pH 7.2) is listed as “(3.96 min^−1)”; in data set [1] (pH 8.5), “(1.80 min^−1)”. For the same compound, the Half-life was 11 s in data set [1] (pH 7.2); 10.5 s in data set [1] (pH 7.2, listed as BDMODS-PI (II)); 23 s in data set [1] (pH 8.5); 23.1 s in data set [1] (pH 8.5, listed as BDMODS-PI (II)). Further, in data set [2] (setting [6]), the “PI positive cells (signal above 100)” value was determined as 99.5±0.1%. The “increase in 90° light scattering signal intensity” value in data set [3] is “maximum two fold increase”. Also, the “labeling of peritoneal tumors” value in data set [4] is recorded as “intensely labeled”.

`CCCCCCCCCCCCNC(=O)CCC(=CCC(=O)O)C(=O)Nc1ccc2c(c1)c(-c1ccccc1)[n+](CCC[N+](C)(CC)CC)c1cc(NC(=O)C(=CCC(=O)O)CCC(=O)NCCCCCCCCCCCC)ccc21.[I-].[I-]` [III, 3,8-bis-[2-(2 carboxyethylidene)-4-(dodecarbamoyl)-1-oxo-butylamine] 5-(3,3-diethyl-3-methylammoniumpropyl) 6-phenyl phenanthridinium diiodide]: the hepatocytes in metaphase in data set [5] is listed as 2.3%. Moreover, the k result in data set [1] (pH 7.2) was “(5.05 min^−1)”; in data set [1] (pH 8.5), “(1.97 min^−1)”. Moreover, the “increase in 90° light scattering signal intensity” value in data set [3] is reported as “maximum two fold increase”. Further, in data set [4], the “labeling of peritoneal tumors” value is “intensely labeled”.

`CC[N+](C)(CC)CCC[n+]1c(-c2ccccc2)c2cc(N)ccc2c2ccc(N)cc21.[I-].[I-]` [PI, Propidium iodide, reference compound] displayed a hepatocytes in metaphase in data set [5] of 7.0%. In addition, the “PI positive cells (signal above 100)” value in data set [2] (PI in aqueous solution, no OS, no mixing chamber (control)) was determined as 0.3±0.1%; in data set [2] (setting [6]), 8.4±0.6%.
